Where two headings read alike, the source gives them in different places.
Experiments:
[1] = biological target: Beta Secretase enzyme (BACE) (Homo sapiens (Human), UniProt P56817); assay: In vitro enzymatic BACE FRET assay; type: biochemical; details: read-out: BACE 1 FRET assay IC50
Method in brief: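 A quenched fluorophore-peptide spanning the BACE cleavage site served as substrate at 50 nM, with one-hour incubation in pH 4.2 acetate buffer containing 100 uM genapol and 10% DMSO final. Fluorescence was measured after quenching with Tris to neutral pH.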

[2] = tested on: Aβ40 in conditioned medium of cells stably expressing Amyloid Precursor Protein (APP); assay: In vitro BACE cell-based assay (Aβ40 sandwich ELISA); details: Homo sapiens, read-out: HEK cell assay IC50
Method in brief: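 Aβ40 in supernatants was measured by time-resolved fluorescence sandwich ELISA using pAb40 capture and biotinylated 6E10 detection, with antibody incubations at 4 °C. Stable APP cells were exposed to compounds for 24 h in a 10-point series (top dose 100 or 10 µM, 0.1% DMSO). IC50 was fitted from the concentration-response.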

Cathepsin D (Cat D) = Cathepsin D (Cat D) (Homo sapiens (Human), UniProt P07339); assay: In vitro enzymatic Cathepsin D (Cat D) FRET assay; type: biochemical; details: read-out: CatD IC50
Method in brief: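 CHO-expressed recombinant Cat D cleaves a fluorophore/quencher FRET peptide (20 nM) in 0.05 M citrate pH 3.5, 5 mM CHAPS, 10% DMSO final, over 1 h. Tris addition neutralizes pH to stop the reaction; fluorescence read at excitation 500 nm, emission 580 nm.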

[3] = HEK293, average IC50, HEK cells
[4] = average IC50, BACE enzyme assay
[5] = HEK293, average IC50, HEK cell assay
[6] = average IC50, cathepsin D enzyme assay

Chain of Beta Secretase enzyme (BACE) (P56817 46-501): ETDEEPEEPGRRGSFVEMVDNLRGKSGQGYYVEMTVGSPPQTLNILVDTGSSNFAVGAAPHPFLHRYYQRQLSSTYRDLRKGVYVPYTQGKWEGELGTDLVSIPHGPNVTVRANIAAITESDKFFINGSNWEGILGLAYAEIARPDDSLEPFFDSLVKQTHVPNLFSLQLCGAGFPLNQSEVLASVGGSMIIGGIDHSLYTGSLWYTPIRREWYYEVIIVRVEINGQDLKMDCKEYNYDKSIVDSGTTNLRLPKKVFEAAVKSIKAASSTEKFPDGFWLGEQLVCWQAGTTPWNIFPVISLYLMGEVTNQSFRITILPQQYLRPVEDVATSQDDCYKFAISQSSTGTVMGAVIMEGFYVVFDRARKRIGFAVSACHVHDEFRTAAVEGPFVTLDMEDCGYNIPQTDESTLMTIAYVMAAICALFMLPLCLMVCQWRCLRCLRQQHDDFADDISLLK
Chain of Cathepsin D (Cat D) (P07339 65-412, species assumed): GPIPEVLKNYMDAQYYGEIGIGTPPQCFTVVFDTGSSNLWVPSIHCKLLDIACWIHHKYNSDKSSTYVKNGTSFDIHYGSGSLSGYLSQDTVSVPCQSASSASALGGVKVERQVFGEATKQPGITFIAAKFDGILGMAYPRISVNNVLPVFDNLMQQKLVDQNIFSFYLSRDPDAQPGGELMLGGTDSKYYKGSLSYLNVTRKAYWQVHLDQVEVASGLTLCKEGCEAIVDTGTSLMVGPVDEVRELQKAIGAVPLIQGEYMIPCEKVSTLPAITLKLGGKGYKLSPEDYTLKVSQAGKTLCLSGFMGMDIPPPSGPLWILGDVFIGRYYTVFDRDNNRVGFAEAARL

Q: Which IC50 ([1]; average) does the source give for `C[C@@]1(c2cc(NC(=O)c3ccc(Br)cn3)cc(F)c2F)C[C@@H](C(F)(F)F)OC(N)=N1` [Example 175, N-(3-((4S,6S)-2-amino-4-methyl-6-(trifluoromethyl)-5,6-dihydro-4H-1,3-oxazin-4-yl)-4,5-difluorophenyl)-5-bromopicolinamide] here?
A: 0.022 µM

Q: And the IC50 ([2]; HEK293, HEK cells, average)?
A: 0.0066 µM

Q: What about the IC50 (Cathepsin D (Cat D); average) of the same compound?
A: 424 µM

Q: Which IC50 ([1]; average IC50) does the source give for `N#Cc1cnc2c(Nc3ccc(F)c([C@]4(CF)C[C@@H](C(F)(F)F)OC(N)=N4)c3)nccc2c1` [Example 22, 8-((3-((4S,6S)-2-amino-4-(fluoromethyl)-6-(trifluoromethyl)-5,6-dihydro-4H-1,3-oxazin-4-yl)-4-fluorophenyl)amino)-1,7-naphthyridine-3-carbonitrile] here?
A: 0.021 µM

Q: And the IC50 [2, 3]?
A: 0.057 µM

Q: What about the IC50 (Cathepsin D (Cat D); average IC50) of the same compound?
A: > 133 µM

Q: How did the IC50 ([1]; average IC50) turn out when `NC1=N[C@](CF)(c2cc(Oc3ncccn3)ccc2F)C[C@@H](C(F)(F)F)O1` [Example 108, (4S,6S)-4-(2-fluoro-5-(pyrimidin-2-yloxy)phenyl)-4-(fluoromethyl)-6-(trifluoromethyl)-5,6-dihydro-4H-1,3-oxazin-2-amine] was run?
A: 9.97 µM

Q: And the IC50 [2, 3]?
A: > 15.6 µM

Q: And the IC50 (Cathepsin D (Cat D); average IC50)?
A: > 400 µM

Q: `C[C@@]1(c2cc(Nc3nc4ccc(Cl)cc4o3)ccc2F)C[C@@H](C(F)(F)F)OC(N)=N1` [Example 29, N-(3-((4S,6S)-2-amino-4-methyl-6-(trifluoromethyl)-5,6-dihydro-4H-1,3-oxazin-4-yl)-4-fluorophenyl)-6-chlorobenzo[d]oxazol-2-amine] was tested. Which IC50 [1, 4] did it give?
A: > 40 µM

Q: And the IC50 [2, 5]?
A: 3.01 µM

Q: And the IC50 (Cathepsin D (Cat D); [6])?
A: 210 µM

Q: What does the source list for `NC1=N[C@](CF)(c2cc(C#Cc3cccc4cc[nH]c34)ccc2F)C[C@@H](C(F)(F)F)O1` [Example 133, (4S,6S)-4-(5-((1H-indol-7-yl)ethynyl)-2-fluorophenyl)-4-(fluoromethyl)-6-(trifluoromethyl)-5,6-dihydro-4H-1,3-oxazin-2-amine]?
A: IC50 ([1]; average): 5.6 µM; IC50 ([2]; HEK293, HEK cells, average): 4.6 µM; IC50 (Cathepsin D (Cat D); average): 1130 µM

Q: `Cc1c(C(=O)Nc2ccc(F)c([C@]3(CF)C[C@@H](C(F)(F)F)OC(N)=N3)c2)nc2ccccn12` [Example 7, N-(3-((4S,6S)-2-amino-4-(fluoromethyl)-6-(trifluoromethyl)-5,6-dihydro-4H-1,3-oxazin-4-yl)-4-fluorophenyl)-3-methylimidazo[1,2-a]pyridine-2-carboxamide] was tested. Which IC50 ([1]; average IC50) did it give?
A: 1.52 µM

Q: And the IC50 [2, 3]?
A: 0.888 µM

Q: And the IC50 (Cathepsin D (Cat D); average IC50)?
A: > 400 µM

Q: For `NC1=N[C@](CF)(c2cc(Nc3ccnc(Br)c3)ccc2F)C[C@@H](C(F)(F)F)O1` [Example 17, (4S,6S)-4-(5-((2-bromopyridin-4-yl)amino)-2-fluorophenyl)-4-(fluoromethyl)-6-(trifluoromethyl)-5,6-dihydro-4H-1,3-oxazin-2-amine], which IC50 [1, 4] is on record?
A: 6.49 µM

Q: What about the IC50 [2, 5] of the same compound?
A: 4.34 µM

Q: And the IC50 (Cathepsin D (Cat D); [6])?
A: 469 µM

Q: Which IC50 ([1]; average) does the source give for `C#CCOc1cnc(C(=O)Nc2cc(C)c(F)c([C@]3(CF)C[C@@H](C(F)(F)F)OC(N)=N3)c2)cn1` [Example 218, N-(3-((4S,6S)-2-amino-4-(fluoromethyl)-6-(trifluoromethyl)-5,6-dihydro-4H-1,3-oxazin-4-yl)-4-fluoro-5-methylphenyl)-5-(prop-2-yn-1-yloxy)pyrazine-2-carboxamide] here?
A: 0.001 µM

Q: And the IC50 ([2]; HEK293, HEK cells, average)?
A: 0.002 µM

Q: What about the IC50 (Cathepsin D (Cat D); average) of the same compound?
A: 188 µM

Q: Which results are given for `N#Cc1ccc(C#Cc2ccc(F)c([C@]3(CF)C[C@@H](C(F)(F)F)OC(N)=N3)c2)nc1` [Example 125, 6-((3-((4S,6S)-2-amino-4-(fluoromethyl)-6-(trifluoromethyl)-5,6-dihydro-4H-1,3-oxazin-4-yl)-4-fluorophenyl)ethynyl)nicotinonitrile]?
A: IC50 ([1]; average): 0.509 µM; IC50 ([2]; HEK293, HEK cells, average): 0.509 µM; IC50 (Cathepsin D (Cat D); average): > 400 µM

Q: Which results are given for `NC1=N[C@](CF)(c2cccc(NC(=O)c3ccc(Cl)cn3)c2)C[C@@H](C(F)(F)F)O1` [Example 143, N-(3-((4S,6S)-2-amino-4-(fluoromethyl)-6-(trifluoromethyl)-5,6-dihydro-4H-1,3-oxazin-4-yl)phenyl)-5-chloropicolinamide]?
A: IC50 ([1]; average IC50): 0.117 µM; IC50 [2, 3]: 0.154 µM; IC50 (Cathepsin D (Cat D); average IC50): 2370 µM

Source: US9296734B2 (AMGEN INC., priority 2013, dated 2016)
